This is an account of results in US20240025907A1, “QUINAZOLINE PAN-KRas INHIBITORS” (Mirati Therapeutics, Inc., priority 2022, published 2024).

Where only a bound is given, the exact number is not on record here.

In experiment [1] the test system is KRas-mediated Phosphorylation of ERK in H727 cells. Put plainly: Cisbio HTRF pERK assay, H727 cells. The class given is cell-based. As to conditions: Homo sapiens, NCI-H727, 3 h, 3 hrs compound, read-out: Inhibition (HTRF IC50 nM) of KRas-mediated Phosphorylation of ERK, H727. For orientation: In TR-FRET formats the signal depends on donor and acceptor labels being close together.

The target of another experiment is T1, KRas^G12D (Homo sapiens, UniProt P01116, G12D).
T1 construct: Biotinylated KRas (corresponding to amino acids 1-169, produced at Accelegan Inc.); biotin (biotinylated); purchased Accelegan Inc
Put plainly: KRas TR-FRET tracer displacement binding assay, G12D. As to conditions: 60-minute incubation. Here is the method: (§1) KRas^WT, KRas^G12A, KRas^G12C, KRas^G12D, KRas^G12R, KRas^G12S, KRas^G12V, KRas^G13D, or KRas^Q61H was used in the assay.
(§2) The ability of a compound to bind to KRas was measured using a TR-FRET displacement assay. Biotinylated KRas (corresponding to amino acids 1-169, produced at Accelegan Inc.) was incubated with custom made Cy5 labelled tracer, terbium streptavidin (Cisbio Inc.) and compound (1% DMSO final) in buffer (50 mM HEPES, pH 7.5, 5 mM MgCl2, 0.005% Tween-20 and 1 mM DTT). After a 60-minute incubation at room temperature, the reaction was measured using a BMG LABTECH CLARIO star Plus via TR-FRET.

Another experiment deals with T2, KRas^G12C (Homo sapiens, UniProt P01116, G12C).
T2 construct: Biotinylated KRas (corresponding to amino acids 1-169, produced at Accelegan Inc.); biotin (biotinylated); purchased Accelegan Inc
Put plainly: KRas TR-FRET tracer displacement binding assay, G12C. The following applies: 60-minute incubation. As for the experimental part:
as §1, §2

In the next experiment the target is T3, KRas^G12V (Homo sapiens, UniProt P01116, G12V).
T3 construct: Biotinylated KRas (corresponding to amino acids 1-169, produced at Accelegan Inc.); biotin (biotinylated); purchased Accelegan Inc
Put plainly: KRas TR-FRET tracer displacement binding assay, G12V. The following applies: 60-minute incubation. Here is the method:
as §1, §2

The next experiment concerns the target T4, KRas^G12S (Homo sapiens, UniProt P01116, G12S).
T4 construct: Biotinylated KRas (corresponding to amino acids 1-169, produced at Accelegan Inc.); biotin (biotinylated); purchased Accelegan Inc
Put plainly: KRas TR-FRET tracer displacement binding assay, G12S. The following applies: 60-minute incubation. Here is the method:
as §1, §2

In experiment [2] the test system is KRas-mediated Phosphorylation of ERK in H460 cells. Put plainly: Cisbio HTRF pERK assay, H460 cells. The class given is cell-based. The following applies: Homo sapiens, NCI-H460, 3 h, H460 cells, 3 hrs compound; read-out: Inhibition (HTRF IC50 nM) of KRas-mediated Phosphorylation of ERK, H460.
The subject of experiment [3] is KRas-mediated Phosphorylation of ERK in AsPC-1 cells. As to the kind of experiment: Cisbio HTRF pERK assay, AsPC-1 cells. The following applies: Homo sapiens, ASPC1, 3 h, 3 hrs compound, read-out: Inhibition (HTRF IC50 nM) of KRas-mediated Phosphorylation of ERK, AsPC-1. Type of experiment: cell-based.
Another experiment deals with T5, KRas^WT (Homo sapiens, UniProt P01116).
T5 construct: Biotinylated KRas (corresponding to amino acids 1-169, produced at Accelegan Inc.); biotin (biotinylated); purchased Accelegan Inc
As to the kind of experiment: KRas TR-FRET tracer displacement binding assay, WT. As to conditions: 60-minute incubation. As for the experimental part: as §1, §2

In experiment [4] the test system is KRas-mediated Phosphorylation of ERK in A549 cells. As to the kind of experiment: Cisbio HTRF pERK assay, A549 cells. The class given is cell-based. As to conditions: Homo sapiens, A549, 3 h, A549 cells, 3 hrs compound; read-out: Inhibition (HTRF IC50 nM) of KRas-mediated Phosphorylation of ERK, A549.
Experiment [5] relates to KRas-mediated Phosphorylation of ERK in H358 cells. As to the kind of experiment: Cisbio HTRF pERK assay, H358 cells. The class given is cell-based. The following applies: Homo sapiens, NCI-H358, 3 h, H358 cells, 3 hrs compound; read-out: Inhibition (HTRF IC50 nM) of KRas-mediated Phosphorylation of ERK, H358.
Experiment [6] deals with KRas-mediated Phosphorylation of ERK in HCT116 cells. As to the kind of experiment: Cisbio HTRF pERK assay, HCT116 cells. Type of experiment: cell-based. The following applies: Homo sapiens, HCT-116, 3 h, HCT116 cells, 3 hrs compound; read-out: Inhibition (HTRF IC50 nM) of KRas-mediated Phosphorylation of ERK, HCT116.
The subject of experiment [7] is KRas-mediated Phosphorylation of ERK in H2009 cells. Put plainly: Cisbio HTRF pERK assay, H2009 cells. The class given is cell-based. The following applies: Homo sapiens, NCI-H2009, H2009 cells; read-out: Inhibition (HTRF IC50 nM) of KRas-mediated Phosphorylation of ERK, H2009.
Experiment [8] has as its system KRas-mediated Phosphorylation of ERK in PSN1 cells. Put plainly: Cisbio HTRF pERK assay, PSN1 cells. The following applies: Homo sapiens, PSN1, 3 h, 3 hour compound, read-out: Inhibition (HTRF IC50 nM) of KRas-mediated Phosphorylation of ERK, PSN1. Type of experiment: cell-based. As for the experimental part: Inhibition of KRas Phosphorylation of ERK (HTRF) by Exemplary Compounds of Formula (I) • Cisbio HTRF Advanced pERK Assay Catalog #64AERPEH • Cell: MKN1, PSN1 • Procedure: • Day 1: Seed 6,000 cells/well −25 μl/well in 384-well white solid bottom plate; RPM1_10% FBS.

T5 sequence (P01116 1-169 isoform P01116-2): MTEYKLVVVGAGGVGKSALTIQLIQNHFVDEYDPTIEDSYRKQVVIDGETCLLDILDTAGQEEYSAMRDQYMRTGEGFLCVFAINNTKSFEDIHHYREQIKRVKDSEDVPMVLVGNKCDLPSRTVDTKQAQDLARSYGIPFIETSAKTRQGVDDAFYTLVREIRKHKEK
T4 sequence (P01116 1-169 isoform P01116-2 G12S): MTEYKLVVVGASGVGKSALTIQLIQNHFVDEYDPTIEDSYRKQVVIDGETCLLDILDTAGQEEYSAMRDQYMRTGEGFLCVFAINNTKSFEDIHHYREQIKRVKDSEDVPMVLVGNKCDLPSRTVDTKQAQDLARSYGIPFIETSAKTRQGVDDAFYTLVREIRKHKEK
T3 sequence (P01116 1-169 isoform P01116-2 G12V): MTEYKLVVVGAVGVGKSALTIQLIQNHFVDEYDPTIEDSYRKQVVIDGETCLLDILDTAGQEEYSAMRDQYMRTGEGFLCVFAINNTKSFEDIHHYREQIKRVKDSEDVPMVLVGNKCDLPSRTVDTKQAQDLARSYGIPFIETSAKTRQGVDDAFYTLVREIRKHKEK
T2 sequence (P01116 1-169 isoform P01116-2 G12C): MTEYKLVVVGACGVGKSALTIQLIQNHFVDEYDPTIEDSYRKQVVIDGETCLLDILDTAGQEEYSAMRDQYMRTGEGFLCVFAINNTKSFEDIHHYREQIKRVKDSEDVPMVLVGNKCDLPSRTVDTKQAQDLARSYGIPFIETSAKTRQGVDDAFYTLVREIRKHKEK
T1 sequence (P01116 1-169 isoform P01116-2 G12D): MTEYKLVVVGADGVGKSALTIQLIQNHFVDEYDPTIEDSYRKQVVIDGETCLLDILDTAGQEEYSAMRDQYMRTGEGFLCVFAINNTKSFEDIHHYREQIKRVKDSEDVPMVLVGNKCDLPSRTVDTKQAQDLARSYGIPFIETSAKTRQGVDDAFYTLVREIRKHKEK

For orientation: IC50 means the midpoint of a concentration-inhibition curve. `C[C@@]1(O)CCCN(c2nc(OC[C@@]34CCCN3C[C@H](F)C4)nc3c(F)c(-c4ccc(F)c5sc(N)c(C#N)c45)c(F)cc23)C1` [Example 198, 2-amino-4-(6,8-difluoro-2-(((2R,7aS)-2-fluorotetrahydro-1H-pyrrolizin-7a(5H)-yl)methoxy)-4-((R)-3-hydroxy-3-methylpiperidin-1-yl)quinazolin-7-yl)-7-fluorobenzo[b]thiophene-3-carbonitrile]: the IC50 is 717 nM in experiment [1]; 9 nM at KRas^G12D; 12 nM on KRas^G12C; 13 nM at KRas^G12V; 11 nM on KRas^G12S; 170 nM in experiment [2]. In addition, the IC50 came to 253 nM in experiment [3]; 7 nM on KRas^WT; 326 nM in experiment [4]; 125 nM in experiment [5]; 275 nM in [6].

Turning to `N#Cc1c(N)sc2c(F)ccc(-c3c(Cl)cc4c(NC5CS(=O)(=O)C5)nc(OC[C@@]56CCCN5C[C@H](F)C6)nc4c3F)c12` [Example 218, 2-amino-4-(6-chloro-4-((1,1-dioxidothietan-3-yl)amino)-8-fluoro-2-(((2R,7aS)-2-fluorotetrahydro-1H-pyrrolizin-7a(5H)-yl)methoxy)quinazolin-7-yl)-7-fluorobenzo[b]thiophene-3-carbonitrile], the IC50 was 429 nM in experiment [1]; 80 nM in experiment [7]; 365 nM in experiment [2]; 1650 nM in experiment [3]; 5110 nM in experiment [8]; 720 nM in experiment [4]. The half-maximal inhibitory concentration (IC50) in experiment [5] came out at 57 nM; in experiment [6] it was 566 nM.

On to `N#Cc1c(N)sc2c(F)ccc(-c3c(Cl)cc4c(NCCS(N)(=O)=O)nc(OC[C@@]56CCCN5C[C@H](F)C6)nc4c3F)c12` [Example 201, 2-((7-(2-amino-3-cyano-7-fluorobenzo[b]thiophen-4-yl)-6-chloro-8-fluoro-2-(((2R,7aS)-2-fluorotetrahydro-1H-pyrrolizin-7a(5H)-yl)methoxy)quinazolin-4-yl)amino)ethane-1-sulfonamide], for which the IC50 is above 10000 nM in experiment [1]; 3 nM at KRas^G12D; 3 nM at KRas^G12C; 3 nM at KRas^G12V; 2 nM on KRas^G12S; 5340 nM in experiment [2]. Besides, the IC50 in [3] was 4690 nM; in [8], above 10000 nM; on KRas^WT it was 3 nM; in [4], above 10000 nM; in [5], 1780 nM; in experiment [6], above 10000 nM.

In the case of `N#Cc1c(N)sc2c(F)ccc(-c3c(Cl)cc4c(N5CCCCC(F)C5)nc(OC[C@@]56CCCN5C[C@H](F)C6)nc4c3F)c12` (stereo partly drawn) [Example 204, 2-amino-4-(6-chloro-8-fluoro-4-(3-fluoroazepan-1-yl)-2-(((2R,7aS)-2-fluorotetrahydro-1H-pyrrolizin-7a(5H)-yl)methoxy)quinazolin-7-yl)-7-fluorobenzo[b]thiophene-3-carbonitrile], the IC50 is 18 nM in experiment [1]; 3 nM on KRas^G12D; 3 nM at KRas^G12C; 3 nM at KRas^G12V; below 2 nM on KRas^G12S; 23 nM in experiment [2]. The IC50 in [3] came out at 16 nM; in experiment [8], 1180 nM; at KRas^WT it was 2 nM; in [4], 34 nM; in [5], 6 nM; in experiment [6] it was 25 nM.

For the compound `N#Cc1c(N)sc2c(F)ccc(-c3c(C4CC4)cc4c(N5C[C@H]6CC[C@@H](C5)N6)nc(OC[C@@]56CCCN5C[C@H](F)C6)nc4c3F)c12` [Example 208, 4-(4-((1R,5S)-3,8-diazabicyclo[3.2.1]octan-3-yl)-6-cyclopropyl-8-fluoro-2-(((2R,7aS)-2-fluorotetrahydro-1H-pyrrolizin-7a(5H)-yl)methoxy)quinazolin-7-yl)-2-amino-7-fluorobenzo[b]thiophene-3-carbonitrile], the IC50 in experiment [1] is 3280 nM; on KRas^G12D, below 2 nM; on KRas^G12C, 7 nM; at KRas^G12V it was 10.4 nM; at KRas^G12S it was 4 nM; in [2], 260 nM. Also, the IC50 is 4 nM in [3]; 2390 nM in experiment [8]; 4 nM on KRas^WT; 418 nM in experiment [4]; 167 nM in experiment [5]; 90 nM in experiment [6].

With `N#Cc1c(N)sc2c(F)ccc(-c3c(Cl)cc4c(N5CCCOCC5)nc(OC[C@@]56CCCN5C[C@H](F)C6)nc4c3F)c12` [Example 211, 2-amino-4-(6-chloro-8-fluoro-2-(((2R,7aS)-2-fluorotetrahydro-1H-pyrrolizin-7a(5H)-yl)methoxy)-4-(1,4-oxazepan-4-yl)quinazolin-7-yl)-7-fluorobenzo[b]thiophene-3-carbonitrile], the IC50 in experiment [1] was 12 nM; at KRas^G12D it was 3 nM; on KRas^G12C, below 2 nM; at KRas^G12V it was 2 nM; on KRas^G12S, below 2 nM; in experiment [2], 13 nM. The IC50 in experiment [3] was 22 nM; in experiment [8], 1270 nM; at KRas^WT, below 2 nM; in experiment [4], 15 nM; in experiment [5], 3 nM; in experiment [6], 18 nM.

Consider `C=Cc1cc2c(N3CCCn4nc(C(=O)N(C)C)cc4C3)nc(OC[C@@]34CCCN3C[C@H](F)C4)nc2c(F)c1-c1ccc(F)c2sc(N)c(C#N)c12` [Example 176, 5-(7-(2-amino-3-cyano-7-fluorobenzo[b]thiophen-4-yl)-8-fluoro-2-(((2R,7aS)-2-fluorotetrahydro-1H-pyrrolizin-7a(5H)-yl)methoxy)-6-vinylquinazolin-4-yl)-N,N-dimethyl-5,6,7,8-tetrahydro-4H-pyrazolo[1,5-a][1,4]diazepine-2-carboxamide], for which the IC50 in experiment [1] is 23 nM; at KRas^G12D, below 2 nM; at KRas^G12C, below 2 nM; at KRas^G12V it was below 2 nM; on KRas^G12S, below 2 nM; in [2], 101 nM. In addition, the IC50 in experiment [3] is 10 nM; on KRas^WT, below 2 nM; in experiment [4] it was 72 nM; in [5], 8 nM; in experiment [6] it was 135 nM.

On to `CN(C)C(=O)c1cc2n(n1)CCCN(c1nc(OC[C@@]34CCCN3C[C@H](F)C4)nc3c(F)c(-c4ccc(F)c5sc(N)c(C#N)c45)c(C4CC4)cc13)C2` [Example 207, 5-(7-(2-amino-3-cyano-7-fluorobenzo[b]thiophen-4-yl)-6-cyclopropyl-8-fluoro-2-(((2R,7aS)-2-fluorotetrahydro-1H-pyrrolizin-7a(5H)-yl)methoxy)quinazolin-4-yl)-N,N-dimethyl-5,6,7,8-tetrahydro-4H-pyrazolo[1,5-a][1,4]diazepine-2-carboxamide], for which the IC50 in [1] is 11 nM; at KRas^G12D it was 2 nM; at KRas^G12C it was below 2 nM; on KRas^G12V, below 2 nM; on KRas^G12S, below 2 nM; in experiment [2], 34 nM. In addition, the IC50 is 3 nM in [3]; 811 nM in experiment [8]; below 2 nM on KRas^WT; 22 nM in experiment [4]; 3 nM in experiment [5]; 42 nM in [6].
